The test deals with T1, TSPO (Mus musculus, UniProt P50637).
T1 construct: mitochondrial-enriched membranes from DBT cells were prepared by lysing cells with ice-cold homogenization buffer; endogenous in cells; host or cells: DBT mouse astrocytoma cells (mitochondrial-enriched membranes / homogenates), untreated or cytokine-treated
Nature of the test: Filtration radioligand binding assay, [^3H]-PK 11195 binding to DBT cell homogenates. Also noted: Bmax: unit not given here. On the procedure: Enriched membranes were prepared according to [28]. Briefly, mitochondrial-enriched membranes from DBT cells were prepared by lysing cells with ice-cold homogenization buffer (50 mM Tris, 1 mM EDTA and 3 mM MgCl2), followed by dounce homogenization (five gentle strokes). Homogenates were centrifuged (40,000×g, 15 min, 4°C) and cell pellet resuspended in 0.5 ml homogenization buffer, re-homogenized by dounce (five gentle strokes while on ice) and centrifuged again (40,000×g, 15 min, 4°C). Cell pellets were stored at −80°C until further use. Radioligand binding assays were performed in silanized glass test tubes (Kimble Glass Inc.). The following components were added: 50 µl of non-radiolabeled DAA1106 or PK 11195, 50 µl of [N-methyl-^3H]-PK 11195 (PerkinElmer, Boston MA; 250 µCi, 84.8 Ci/mmol) and 100 µl of protein (50 µg, which started the incubation) for a total volume of 200 µl in binding buffer (50 mM Tris, 1 mM EDTA, 3 mM MgCl2 and 0.1% BSA), all of which was placed in a water bath (30°C) with mild agitation for 1 hr. Incubation was stopped by rapid filtration and rinsing with ice-cold binding buffer, using the Brandel harvester (Gaithersburg, MD) and Whatman GFB filter paper (Brandel, Gaithersburg MD). Filters were then transferred to 7 ml glass scintillation vials (VWR, West Chester PA). Five ml of Ecoscint XR scintillation fluid (National Diagnostics, Atlanta, GA) was added, followed by 10 sec vortexing and ∼18 hrs incubation at room temperature prior to determining the radioactivity with a scintillation counter (PerkinElmer, Boston MA).
Data are expressed as n = number of determinations (three per independent experiment). Statistical analysis, Kd and Ki values were calculated using non-linear regression with a one binding site hyperbola, where X is the concentration of the ligand, Y is specific binding and Bmax and Kd are determined using this equation: Y = Bmax X/Kd+X calculated by GraphPad Prism 4.

Structures are written as SMILES.

On to `[3H]CN(C(=O)c1cc2ccccc2c(-c2ccccc2Cl)n1)C(C)CC` (centres unmarked) [[^3H]-PK 11195, [N-methyl-^3H]-PK 11195], for which the “amount of TSPO detected with [^3H]-PK 11195 (Bmax)” value (DBT cell homogenates, untreated cells) is on record as 14 pmol of TSPO per gram of protein. Further, the Bmax was 17.0+/−2.6 (homogenates of DBT cells treated with IFNγ (100 Ui/ml), 18–24 hrs); 17.6+/−2.4 (homogenates of DBT cells treated with IFNγ+TNFα, 18–24 hrs); 22.1+/−4.7 (homogenates of DBT cells treated with TGFβ2 (1 ng/ml), 18–24 hrs); 17.4+/−2.9 (homogenates of DBT cells treated with TNFα (5 ng/ml), 18–24 hrs); 14.0+/−1.1 (homogenates of DBT cells, Control (vehicle, 18–24 hrs)).
As to `COc1ccc(OC)c(CN(C(C)=O)c2cc(F)ccc2Oc2ccccc2)c1` [DAA1106], the Ki (commonly the dissociation constant of the complex between target and ligand, obtained from inhibition or displacement) (DBT cell homogenates, read-out: Ki, competition for [^3H]-PK 11195 binding) came to 0.2 nM.
For `CCC(C)N(C)C(=O)c1cc2ccccc2c(-c2ccccc2Cl)n1` (centres unmarked) [PK 11195], for the setting “DBT cell homogenates, read-out: EC50, competition for [^3H]-PK 11195 binding”, the EC50 – broadly, the concentration giving half of the maximal effect – amounted to 93 nM.

The values are drawn from publication PMC2792720, “Binding of NIR-conPK and NIR-6T to Astrocytomas and Microglial Cells: Evidence for a Protein Related to TSPO” (PLoS ONE, 2009).
